The target of data set [1] is α1-adrenoceptors (α1-ARs), rat cerebral cortex. In words: Radioligand binding assay with [3H]-prazosin, affinity for α1-ARs. The settings on record: three independent experiments in duplicates, read-out: α1-adrenoceptor affinity Ki. Here is the method:
In the first step, all synthesized compounds (1–15) were tested in vitro for their affinity for α1-ARs on rat cerebral cortex by the radioligand binding assay using [^3H]-prazosin as a specific radioligand.
The affinity for α1-ARs was determined by radioligand binding assay on rat cerebral cortex using [3H]-prazosin as a specific radioligand. The brains were homogenized in 20 volumes of an ice-cold 50 mM Tris-HCl buffer (pH 7.6) and were centrifuged (MPW Med. Instruments, Warsaw, Poland) at 20,000× g for 20 min (0–4 °C). The cell pellet was resuspended in the Tris-HCl buffer and centrifuged again. Radioligand-binding assay was performed in plates (MultiScreen/Millipore, Burlington, MA, USA). The final incubation mixture (final volume 300 μL) consisted of 240 μL of the membrane suspension, 30 μL of [3H]-Prazosin (0.2 nM) solution, and 30 μL of the buffer containing seven to eight concentrations (10^−11 to 10^−4 M) of the tested compounds. For measuring the unspecific binding, phentolamine, 10 μM (in the case of [3H]-Prazosin) was applied. The incubation was terminated by rapid filtration over glass fiber filters (Whatman GF/C, Sigma-Aldrich) using a vacuum manifold (Millipore). The filters were then washed twice with the assay buffer and placed in scintillation vials with a liquid-scintillation cocktail. Radioactivity was measured in a WALLAC 1409 DSA liquid-scintillation counter (BioSurplus, San Diego, CA, USA).
(§1) All statistics were performed using GraphPad Prism, Version 6.0 (GraphPad Software, San Diego, CA, USA). In the radioligand binding study, data were analyzed by a one-site curve-fitting equation, and inhibition constants (Ki) values were calculated via the Cheng-Prusoff equation [63]. In functional studies, data were analyzed using a sigmoidal dose-response (variable slope) equation. Arterial blood pressure data were analyzed using a two-way ANOVA with Sidak’s post-hoc test for multiple comparisons. A p < 0.05 was considered statistically significant.

Data set [2] addresses T1, human adrenergic receptor α1A (Homo sapiens, UniProt P35348).
T1 sequence (P35348 1-466): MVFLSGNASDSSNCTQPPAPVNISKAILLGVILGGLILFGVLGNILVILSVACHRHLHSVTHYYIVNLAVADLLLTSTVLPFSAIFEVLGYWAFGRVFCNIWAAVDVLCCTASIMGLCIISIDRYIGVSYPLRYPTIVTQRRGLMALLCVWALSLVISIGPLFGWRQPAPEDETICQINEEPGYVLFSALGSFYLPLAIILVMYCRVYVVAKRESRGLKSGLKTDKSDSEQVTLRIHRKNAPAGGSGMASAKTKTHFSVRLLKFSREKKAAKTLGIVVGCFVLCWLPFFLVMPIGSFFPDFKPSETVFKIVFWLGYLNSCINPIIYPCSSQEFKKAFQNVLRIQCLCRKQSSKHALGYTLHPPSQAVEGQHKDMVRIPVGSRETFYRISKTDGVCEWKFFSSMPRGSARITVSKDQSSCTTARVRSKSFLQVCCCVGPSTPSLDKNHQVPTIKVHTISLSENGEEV
The data set is described as follows: Intrinsic activity, aequorin luminescence functional assay at α1A-AR. In kind it is cell-based. To be noted: for α1A-AR Profile: agonist/antagonist profile; for IC50: cells expressing aequorin and human α1A, against phenylephrine, means of three independent experiments in duplicates; for Selectivity Ratio α1B/α1A: selectivity for α1A-AR (IC50(α1B-AR)/IC50(α1A-AR)). Here is the method: (§2) The subtype selectivity for α1A and α1B was calculated as IC50(α1B-AR)/IC50(α1A-AR) and IC50(α1A-AR)/IC50(α1B-AR) ratio, respectively.
(§3) Intrinsic activity at the α1-AR subtypes studies were performed using the cells expressing mitochondrially-targeted aequorin and one of the human adrenergic receptor α1A or α1B (PerkinElmer, Boston, MA, USA), according to the manufacturer’s instructions. For measurement, frozen cells were thawed and re-suspended in 10 mL of assay buffer containing 5 μM “Coelenterazine h”. This cell suspension was put in a 10 mL Falcon tube, fixed onto a rotating heel, and incubated overnight at rt in the dark (8 rpm; 45° angle). Cells were diluted with Assay Buffer to 5000 cells/20 μL. […] The light emitted was recorded for 20 s. Cells with antagonists were incubated for 15 min at room temperature. […] Luminescence was measured using the multidetection microplate reader (POLARstar Omega, BMG LABTECH, Ortenberg, Germany).
as §1

Data set [3] concerns the target T2, human adrenergic receptor α1B (Homo sapiens, UniProt P35368).
T2 sequence (P35368 1-520): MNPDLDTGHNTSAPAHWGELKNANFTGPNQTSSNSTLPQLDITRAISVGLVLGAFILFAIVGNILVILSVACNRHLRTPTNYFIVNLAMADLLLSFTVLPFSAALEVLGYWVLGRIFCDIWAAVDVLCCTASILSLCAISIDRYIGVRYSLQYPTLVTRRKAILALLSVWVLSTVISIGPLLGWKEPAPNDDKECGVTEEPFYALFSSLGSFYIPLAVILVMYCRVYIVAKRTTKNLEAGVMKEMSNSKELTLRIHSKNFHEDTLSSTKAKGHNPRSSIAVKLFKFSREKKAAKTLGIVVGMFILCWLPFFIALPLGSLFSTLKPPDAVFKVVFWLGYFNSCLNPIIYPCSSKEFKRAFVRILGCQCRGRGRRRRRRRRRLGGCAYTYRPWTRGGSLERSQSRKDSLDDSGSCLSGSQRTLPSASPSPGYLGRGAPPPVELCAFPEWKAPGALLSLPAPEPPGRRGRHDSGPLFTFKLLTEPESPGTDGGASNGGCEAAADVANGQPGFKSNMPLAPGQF
The data set is described as follows: Intrinsic activity, aequorin luminescence functional assay at α1B-AR. It counts as cell-based. To be noted: for α1B-AR Profile: agonist/antagonist profile; for IC50: cells expressing aequorin and human α1B, against phenylephrine, means of three independent experiments in duplicates; for Selectivity Ratio α1A/α1B: selectivity for α1B-AR (IC50(α1A-AR)/IC50(α1B-AR)). Here is the method: as §2, §3, §1

The test system of data set [4] is arterial blood pressure of normotensive Wistar rats. In words: Influence on blood pressure in normotensive anesthetized rats after i.v. administration. The settings on record: for Diastolic blood pressure / Systolic blood pressure: 2.0 mg/kg i.v., mean, n = 6; for effect on systolic and diastolic blood pressure (in words): i.v., normotensive anesthetized rats. In kind it is in vivo, rat. Here is the method:
In the next step, the hypotensive activity of novel compounds 1–3, 5–9, and 11–14 was determined after i.v. administration to normotensive anesthetized rats. All results are shown in Supplementary Table S1.
The normotensive rats were anesthetized with thiopental (75 mg/kg) by intraperitoneal injection (i.p.). The left carotid artery was cannulated with a polyethylene tub filled with heparin in saline to facilitate pressure measurements using a PowerLab Apparatus (ADInstruments, Sydney, Australia). Blood pressure was measured immediately before administration of the tested compounds or vehicle—time 0 min (initial blood pressure) and 60 min thereafter. Initial blood pressure before administration of the tested chemicals in all experimental groups was similar. The tested compounds were dissolved in a specific vehicle: ethyl alcohol 5% − kolliphor 5% − water 90%. All tested chemicals were administrated intravenously (i.v.) at a constant volume of 1 mL/kg after 20 min of stabilization period. The compounds were tested at a starting dose of 2 mg/kg. If the hypotensive activity was found, the dose was reduced by half. The dosing was continued until the hypotensive effects disappeared. Urapidil was used as a reference compound.
as §1

Setting [5] is: 0 min (initial, before administration).

Several values for one entry are separate records, joined by “and”; a condition that tells them apart may be missing. Equal values may be shown once.

As for `CC1(C)C(=O)N(Cc2ccc(Cl)cc2Cl)C(=O)N1CC(O)CN1CCN(c2ccccc2C#N)CC1.Cl` (stereo not drawn) [Compound 11, 3-(2,4-dichlorobenzyl)-1-(3-(4-(2-cyanophenyl)piperazin-1-yl)-2-hydroxypropyl)-5,5-dimethylimidazolidine-2,4-dione hydrochloride], the melting point (in general, the temperature of the solid-liquid transition) was 147 to 149 °C. Further, in data set [1], the Ki (usually the dissociation constant of the complex between target and ligand, obtained from inhibition or displacement) stood at 26 nM. Moreover, in data set [2], the “α1A-AR Profile” value is listed as “Antagonist”, the IC50 (commonly the concentration that gives 50% inhibition) came to 162 nM and the “Selectivity Ratio α1B/α1A” value turned out to be 2.21. For the same compound, in data set [2] (from IC50 ratio), the “selectivity for α1A-AR over α1B-AR” value is recorded as ~ 2 fold. Further, in data set [3], the “α1B-AR Profile” value is recorded as “Antagonist”, the IC50 turned out to be 359 nM and the “Selectivity Ratio α1A/α1B” value turned out to be 0.45. In data set [4] (setting [5]), this compound yielded a Diastolic blood pressure of 91.7 and a Systolic blood pressure of 128.5. In data set [4] (5 min), this compound showed a Diastolic blood pressure of 84.0 and a Systolic blood pressure of 117.0. In data set [4] (10 min), this compound gave a Diastolic blood pressure of 80.7 and a Systolic blood pressure of 112.8. In data set [4] (20 min), this compound returned a Diastolic blood pressure of 79.7 and a Systolic blood pressure of 113.0. Further, in data set [4] (30 min), the Diastolic blood pressure worked out at 79.8 and the Systolic blood pressure is 112.5. In data set [4] (40 min), this compound showed a Diastolic blood pressure of 82.0 and a Systolic blood pressure of 113.8. In addition, in data set [4] (50 min), the Diastolic blood pressure was found to be 82.3 and the Systolic blood pressure is on record as 116.3. Also, in data set [4] (60 min), the Diastolic blood pressure is on record as 81.7 and the Systolic blood pressure was 118.2. Besides, in data set [4], the “effect on systolic and diastolic blood pressure (in words)” value is “no significant changes”.

For the compound `CC1(C)C(=O)N(Cc2ccc(Cl)cc2Cl)C(=O)N1CCCCCN1CCN(c2ccccc2)CC1.Cl` [Compound 3, 3-(2,4-dichlorobenzyl)-5,5-dimethyl-1-(5-(4-phenylpiperazin-1-yl)pentyl)imidazolidine-2,4-dione hydrochloride], the melting point lay within 218 to 220 °C. The Ki in data set [1] was 43 nM. Moreover, in data set [2], the “α1A-AR Profile” value is recorded as “Antagonist”, the IC50 is 290 nM and the “Selectivity Ratio α1B/α1A” value turned out to be 0.01. Also, in data set [3], the “α1B-AR Profile” value is on record as “Antagonist”; the IC50 was < 11 nM and 3.27 nM; the “Selectivity Ratio α1A/α1B” value is 88.73. In data set [3] (from IC50 ratio), the “selectivity for α1B-AR over α1A-AR” value was ~ 90 fold. Also, in data set [4] (setting [5]), the Diastolic blood pressure is given as 93.7 and the Systolic blood pressure is reported as 132.2. Also, in data set [4] (5 min), the Diastolic blood pressure stood at 90.3 and the Systolic blood pressure was 123.3. In data set [4] (10 min), the Diastolic blood pressure is 81.2 and the Systolic blood pressure stood at 113.7. Moreover, in data set [4] (20 min), the Diastolic blood pressure amounted to 81.7 and the Systolic blood pressure was found to be 113.0. In data set [4] (30 min), this compound showed a Diastolic blood pressure of 83.2 and a Systolic blood pressure of 116.3. Also, in data set [4] (40 min), the Diastolic blood pressure is recorded as 82.7 and the Systolic blood pressure was 116.3. Moreover, in data set [4] (50 min), the Diastolic blood pressure is recorded as 84.2 and the Systolic blood pressure stood at 120.3. For the same compound, in data set [4] (60 min), the Diastolic blood pressure worked out at 83.8 and the Systolic blood pressure was 119.7. Moreover, in data set [4], the “effect on systolic and diastolic blood pressure (in words)” value was “statistically significant reduction”.

`CC1(C)C(=O)N(Cc2ccc(Cl)cc2Cl)C(=O)N1CC(O)CN1CCN(c2ccc(Cl)c(Cl)c2)CC1.Cl` (stereo not drawn) [Compound 10, 3-(2,4-dichlorobenzyl)-1-(3-(4-(3,4-dichlorophenyl)piperazin-1-yl)-2-hydroxypropyl)-5,5-dimethylimidazolidine-2,4-dione hydrochloride]: the melting point lay within 223 to 225 °C. Besides, in data set [1], the Ki was 778 nM.

Source of the values: article PMC10706087, “The Subtype Selectivity in Search of Potent Hypotensive Agents among 5,5-Dimethylhydantoin Derived α1-Adrenoceptors Antagonists” (International Journal of Molecular Sciences, 2023).
